{"source": "patent US5912266A", "about": "“Beta2 integrin cell adhesion molecule inhibitors” (American Home Products Corporation, priority 1997, dated 1999)", "key": {"HL60 cells": {"test_system": "HL60 cells", "assay": "MTT cytotoxicity assay, HL60 cells", "format": "cell-based", "details": "for Average Optical Density: HL60, 30 min.", "from_the_text": "(§1) This experiment describes the affect of asperlin on cellular respiration (mitochondrial activity) by measuring the reduction of the tetrazolium salt MTT to formazan crystals (Moseman, et al). This assay served as a control to ensure that the decrease in the fluorescence observed in Example I, Table I, was not the result of the fluorescent dye leaking from the cells due to disruption of the cell membrane. To address this issue, the mitochondrial activity of β2 and β1 integrin expressing cells in the presence of asperlin was quantitated using a commercially available MTT cytotoxicity kit (Promega No. G4100).\n(§2) HL60 and U937 cells were purchased from the American Type Culture Collection (ATCC) and maintained in RPMI 1640 culture media containing 10% heat inactivated fetal bovine serum (refer to Example I, materials). HL60 cells were used between passages 20 and 30. HL60 cells were stimulated by a four day exposure to DMSO, as described in Example I, materials. Falcon round bottom tissue culture plates (No. 3077) were used for the experiment. All remaining reagents were supplied in Promega's MTT cytotoxicity kit (Catalog No. G4100).\n(§3) The assay procedure described in the Promega MTT kit was used with the following changes.\n(§4) Asperlin was solubilized in 100% DMSO at a concentration of 50 mg/ml. The 50 mg/ml asperlin stock was diluted to 400 μg/ml with culture media containing 5% fetal bovine serum (FBS). This solution was further diluted to 80 and 20 μg/ml with culture media supplemented with 5% FBS plus 2% DMSO. 50 μl of the 20 and 80 μg/ml asperlin solutions were added to wells of a sterile, round bottom 96 well assay plate. Control wells received 50 μl of culture media containing 5% FBS plus 2% DMSO. Duplicate assay wells were prepared such that U937 and HL60 cells could be evaluated on the same plate. The cell density of β1 integrin expressing U937, and β2 integrin expressing HL60 cell cultures were determined using a hemacytometer.\n(§5) Cells were harvested by centrifuging for 5 minutes at 1000 rpm, room temperature, in a Sorvall RT600 bench-top centrifuge. The HL60 cell pellet was resuspended in fresh culture media at a concentration of 5×10^6 cells/ml. The U937 cell pellet was resuspended in fresh culture media at a concentration of 2.5×10^6 cells/ml. 2.5×10^5 β2 integrin expressing HL60 cells, contained in 50 μl, were added to wells of the assay plate using a multichannel pipettor. In duplicate assay wells, 1.25×10^5 β1 integrin expressing U937 cells, contained in 50 μl, were added to wells of the assay plate using a multichannel pipettor. Assay plates were incubated for either 30 minutes, 60 minutes, or 4 hours in a 37° C. 5% CO2, humidified incubator.\n(§6) At the appropriate time point, 15 μl of MTT reagent, supplied in the Promega assay kit, was added to each well using a multichannel pipettor. Assay plates were incubated in the 37° C. incubator, as just described, for two hours. The MTT reduction reaction was quenched, and the visible formazan crystals were solubilized by adding exactly 100 μl of Promega's solubilization buffer to each well. […] The optical density (OD) of each well of the assay plate was determined using a microtiter plate reader (Flow Labs) set at a wavelength of 580 nm with a correction wavelength of 630 nm.\n(§7) Replicate sample ODs were average. The percentage of inhibition of cellular respiration (mitochondrial activity) by asperlin was quantitated by the following equation: […]"}, "[1]": {"assay": "MTT cytotoxicity assay, HL60 cells", "format": "cell-based", "details": "human, hl60 cells, HL60, 30 min., read-out: % Inhibition MTT Reduction", "from_the_text": "as §1, §2, §3, §4, §5, §6, §7"}}, "note": "Read-outs that look alike come from different tables or passages of the source.", "data": [{"smiles": "CC(=O)OC1C=CC(=O)OC1C1OC1C", "note": "[Asperlin, 6,7-Anhydro-2,3,8-trideoxy-D-galacto-oct-2-enoic acidδ-lactone 4-acetate]", "values": [{"measurement": "Average Optical Density", "setting": "HL60 cells; Asperlin 10 μg/mL", "result": ".819"}, {"measurement": "Average Optical Density", "setting": "HL60 cells; Asperlin 40 μg/mL", "result": ".649"}, {"measurement": "Cytotoxicity (in words)", "setting": "HL60 cells; β2 integrin expressing HL60 cells", "result": "not cytotoxic"}, {"measurement": "cytotoxicity at 0.5 h", "setting": "[1]; Asperlin 10 μg/mL", "result": 8, "unit": "%"}, {"measurement": "cytotoxicity at 0.5 h", "setting": "[1]; Asperlin 40 μg/mL", "result": 27, "unit": "%"}]}]}
